This passage reports Ki results from patent US8410310B2, “Trypsin-like serine protease inhibitors, and their preparation and use” (The Medicines Company (Leipzig) GmbH, priority 2006, dated 2013).

What all share (assay type): biochemical
Test [1] has as its target Xa (Homo sapiens, UniProt P00742). Put plainly: Determination of inhibition constants for Xa. How it is done:
(§1) The inhibitory effect for the individual enzymes was determined in analogy to a previously disclosed method (Stürzebecher et al., 1997).
(§2) For zero order kinetics, the reaction was stopped after 20 min by adding 25 μl of acetic acid (50% v/v), and the absorption at 405 nm was determined using a Microplate Reader (Multiscan Ascent, from Thermo). In the case of pseudo-first order kinetics, the reaction rates in the equilibrium state were ascertained by recording the reaction kinetics. The Ki values were ascertained either in accordance with Dixon (1953) by linear regression using a computer program or by parameter fitting in accordance with the rate equation for competitive inhibition. The Ki values are the average of at least two determinations.

The target in test [2] is Thrombin (Homo sapiens, UniProt P00734). The test is described as follows: Determination of inhibition constants for thrombin. How it is done:
as §1, §2

Test [3] concerns the target plasmin (Homo sapiens, UniProt P00747). Put plainly: Determination of inhibition constants for plasmin. More on the design: purchased Calbiochem. As to the method:
as §1, §2

Test [4] deals with plasma kallikrein (Homo sapiens, UniProt P03952). The test is described as follows: Determination of inhibition constants for PK. More on the design: purchased Enzyme Research Lab. / Enzyme Research Laboratories. As to the method:
as §1, §2

Where [5] appears, read: 25° C., substrate Chromozym PL, pH 8.0, read-out: Plasmin [Ki].
Where [6] appears, read: 25° C., substrate S2302, pH 8.0, read-out: PK [Ki].
[7] abbreviates: summary of results, read-out: Ki value of the plasmin inhibition.
[8] abbreviates: summary of results, read-out: Ki value of the plasma kallikrein inhibition.

In general, Ki refers to the dissociation constant of the complex between target and ligand, obtained from inhibition or displacement.

Read-outs that look alike come from different tables or passages of the source. Where only a bound is given, the exact number is not on record here.

Sequence of Xa (P00742 235-488 limits assumed): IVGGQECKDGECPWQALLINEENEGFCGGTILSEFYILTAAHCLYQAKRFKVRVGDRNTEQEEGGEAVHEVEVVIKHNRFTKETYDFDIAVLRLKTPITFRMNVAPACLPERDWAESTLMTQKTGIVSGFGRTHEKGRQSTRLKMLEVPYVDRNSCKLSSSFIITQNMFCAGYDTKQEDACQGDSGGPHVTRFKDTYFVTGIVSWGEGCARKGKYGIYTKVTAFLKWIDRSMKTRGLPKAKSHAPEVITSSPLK
Sequence of Xa (P00742 41-179 limits assumed): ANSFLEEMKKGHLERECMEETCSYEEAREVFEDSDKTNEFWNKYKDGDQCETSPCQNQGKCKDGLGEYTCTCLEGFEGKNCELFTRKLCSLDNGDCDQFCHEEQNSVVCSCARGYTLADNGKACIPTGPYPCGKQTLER
Sequence of plasma kallikrein (P03952 391-638 limits assumed): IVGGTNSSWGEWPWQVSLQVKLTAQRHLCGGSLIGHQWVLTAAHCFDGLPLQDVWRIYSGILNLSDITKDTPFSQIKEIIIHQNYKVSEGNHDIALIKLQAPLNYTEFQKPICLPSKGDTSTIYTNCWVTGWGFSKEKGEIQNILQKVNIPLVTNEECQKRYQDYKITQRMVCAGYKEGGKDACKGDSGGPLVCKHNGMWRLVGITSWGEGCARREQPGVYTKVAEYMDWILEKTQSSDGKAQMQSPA
Sequence of plasma kallikrein (P03952 20-390 partner limits assumed): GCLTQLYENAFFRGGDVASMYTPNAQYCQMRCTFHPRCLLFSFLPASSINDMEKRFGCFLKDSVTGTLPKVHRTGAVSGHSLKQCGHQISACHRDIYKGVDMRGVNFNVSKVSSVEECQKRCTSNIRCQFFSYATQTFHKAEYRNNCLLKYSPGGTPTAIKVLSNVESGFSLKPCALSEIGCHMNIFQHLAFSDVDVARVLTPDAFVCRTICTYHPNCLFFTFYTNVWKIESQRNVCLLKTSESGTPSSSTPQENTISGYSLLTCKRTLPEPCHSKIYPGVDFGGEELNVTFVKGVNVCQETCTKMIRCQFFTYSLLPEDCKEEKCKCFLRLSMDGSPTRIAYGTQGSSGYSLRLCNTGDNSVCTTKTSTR
Sequence of plasmin (P00747 581-810 limits assumed): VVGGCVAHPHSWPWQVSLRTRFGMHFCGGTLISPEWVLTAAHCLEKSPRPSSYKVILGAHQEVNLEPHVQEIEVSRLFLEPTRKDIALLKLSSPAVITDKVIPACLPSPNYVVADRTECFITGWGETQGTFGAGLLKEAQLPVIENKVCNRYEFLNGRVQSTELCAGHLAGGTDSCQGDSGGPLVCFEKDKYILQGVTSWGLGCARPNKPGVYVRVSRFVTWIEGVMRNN
Sequence of plasmin (P00747 97-580 partner limits assumed): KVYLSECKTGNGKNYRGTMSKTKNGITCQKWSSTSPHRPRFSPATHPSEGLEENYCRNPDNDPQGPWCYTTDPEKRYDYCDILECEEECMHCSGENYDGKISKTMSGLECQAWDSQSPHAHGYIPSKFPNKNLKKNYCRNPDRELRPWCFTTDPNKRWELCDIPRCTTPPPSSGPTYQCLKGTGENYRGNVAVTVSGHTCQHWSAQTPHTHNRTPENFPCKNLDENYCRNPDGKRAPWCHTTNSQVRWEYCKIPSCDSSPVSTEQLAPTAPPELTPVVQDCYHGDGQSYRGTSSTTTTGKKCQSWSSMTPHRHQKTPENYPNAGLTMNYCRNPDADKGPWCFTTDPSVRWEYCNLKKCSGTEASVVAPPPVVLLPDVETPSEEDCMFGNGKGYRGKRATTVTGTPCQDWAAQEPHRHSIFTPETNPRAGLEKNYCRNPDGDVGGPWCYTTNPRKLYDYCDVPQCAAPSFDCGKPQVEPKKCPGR

As to `N=C(N)c1ccc(CNC(=O)[C@H](Cc2cccc(CN)c2)NC(=O)[C@@H](CO)NS(=O)(=O)Cc2ccc(C(=O)O)cc2)cc1` [compound 70], the Ki in test [1] is more than 1 µM; in test [2], more than 1 µM; in test [3] (setting [5]), less than 0.1 µM; in test [4] (setting [6]), less than 0.01 µM.

On to `N=C(N)Nc1ccc(CNC(=O)[C@H](Cc2cccc(CN)c2)NC(=O)[C@@H](CCCc2ccccc2)NS(=O)(=O)Cc2cccc(C(=O)O)c2)cc1` [compound 4, 3-HOOC-Bzls-d-Ppg-Phe(3-Ame)-4-guanidinobenzylamide×2 acetate], for which the Ki was more than 1 µM in test [1], more than 1 µM in test [2], less than 0.1 µM in test [3] (setting [5]) and less than 0.01 µM in test [4] (setting [6]).

For `N=C(N)c1ccc(CNC(=O)[C@H](CCc2ccncc2)NC(=O)[C@@H](CC2CCCCC2)NS(=O)(=O)Cc2ccccc2)cc1` [compound 43], the Ki in test [1] is less than 0.1 µM; in test [2] it was less than 0.01 µM; in test [3] (setting [5]) it was less than 0.01 µM; in test [4] (setting [6]), less than 0.1 µM.

On to `N=C(N)c1ccc(CNC(=O)[C@H](CCc2ccccc2)NC(=O)[C@@H](CCCc2cc[n+]([O-])cc2)NS(=O)(=O)Cc2cccc(C(=O)O)c2)cc1` [compound 54], for which the Ki was less than 0.1 µM in test [1], more than 1 µM in test [2], less than 0.01 µM in test [3] (setting [5]) and less than 0.01 µM in test [4] (setting [6]).

In the case of `N=C(N)c1ccc(CNC(=O)[C@H](CCc2ccccc2)NC(=O)[C@@H](CCCc2cccnc2)NS(=O)(=O)Cc2cccc(C(=O)O)c2)cc1` [compound 52], the Ki in test [1] was less than 0.01 µM; in test [2] it was less than 0.1 µM; in test [3] (setting [5]) it was less than 0.01 µM; in test [4] (setting [6]), less than 0.01 µM.

As to `N=C(N)c1ccc(CNC(=O)[C@H](CCc2ccccc2)NC(=O)[C@@H](CCCc2cc[n+]([O-])cc2)NS(=O)(=O)Cc2ccccc2)cc1` [compound 53], the Ki was less than 0.01 µM in test [1], less than 0.1 µM in test [2], less than 0.01 µM in test [3] (setting [5]) and less than 0.01 µM in test [4] (setting [6]).

Regarding `COC(=O)c1cccc(CS(=O)(=O)N[C@H](COC(C)(C)C)C(=O)N[C@@H](Cc2cccc(CN)c2)C(=O)NCc2ccc(C(=N)N)cc2)c1` [compound 66], the inhibition constant (Ki) in test [1] was less than 0.1 µM; in test [2], more than 1 µM; in test [3] (setting [5]) it was less than 0.01 µM; in test [4] (setting [6]), less than 0.01 µM.

With `N=C(N)c1ccc(CNC(=O)[C@H](CCc2cc[n+]([O-])cc2)NC(=O)[C@@H](CCCc2ccccc2)NS(=O)(=O)Cc2ccccc2)cc1` [compound 41], the Ki in test [1] was less than 1 µM; in test [2], less than 0.1 µM; in test [3] (setting [5]) it was less than 0.01 µM; in test [4] (setting [6]), less than 0.01 µM.

Regarding `N=C(N)c1ccc(CNC(=O)[C@H](CCc2ccccc2)NC(=O)[C@@H](CCCc2ccccc2)NS(=O)(=O)Cc2ccc(C(=O)O)cc2)cc1` [compound 35], the Ki is less than 1 µM in test [1]; less than 1 µM in test [2]; less than 0.01 µM in test [3] (setting [5]); less than 0.005 µM in test [3] (setting [7]); less than 0.01 µM in test [4] (setting [6]).

For `N=C(N)c1ccc(CNC(=O)[C@H](Cc2cccc(CN)c2)NC(=O)[C@@H](CCCC2CCCCC2)NS(=O)(=O)Cc2ccccc2)cc1` [compound 21], the Ki in test [1] is less than 0.1 µM; in test [2], less than 1 µM; in test [3] (setting [5]), less than 0.01 µM; in test [4] (setting [6]) it was less than 0.01 µM.

As for `N=C(N)c1ccc(CNC(=O)[C@H](Cc2cccc(CN)c2)NC(=O)[C@H](NS(=O)(=O)Cc2cccc(C(=O)O)c2)C(c2ccccc2)c2ccccc2)cc1` [compound 23], the Ki in test [1] is less than 0.1 µM; in test [2], less than 0.1 µM; in test [3] (setting [5]), less than 0.01 µM; in test [4] (setting [6]) it was less than 0.01 µM.

Regarding `N=C(N)c1ccc(CNC(=O)[C@H](Cc2cccc(CN)c2)NC(=O)[C@@H](CCc2ccc(O)cc2)NS(=O)(=O)Cc2ccccc2)cc1` [compound 24], the Ki was less than 0.01 µM in test [1], less than 1 µM in test [2], less than 0.01 µM in test [3] (setting [5]) and less than 0.01 µM in test [4] (setting [6]).

With “Bzls-d-Gly(3-O-Phpr)-Phe(3-Ame)-4-Amba×2 TFA [compound 6]”, the Ki in test [1] was less than 0.1 µM; in test [2], less than 1 µM; in test [3] (setting [5]), less than 0.01 µM; in test [4] (setting [6]), less than 0.01 µM.

With `N=C(N)c1ccc(CNC(=O)[C@H](Cc2ccc(CN)cc2)NC(=O)[C@@H](CCCc2ccccc2)NS(=O)(=O)Cc2cccc(C(=O)O)c2)cc1` [compound 30], the Ki was less than 1 µM in test [1], more than 1 µM in test [2], less than 0.01 µM in test [3] (setting [5]) and less than 0.01 µM in test [4] (setting [6]).

For `N=C(N)c1ccc(CNC(=O)[C@H](Cc2cccc(CN)c2)NC(=O)[C@@H](CO)NS(=O)(=O)Cc2ccccc2)cc1` [compound 68], the Ki in test [1] was more than 1 µM; in test [2] it was more than 1 µM; in test [3] (setting [5]) it was less than 0.1 µM; in test [4] (setting [6]), less than 0.01 µM.

In the case of `CC(C)(C)OC[C@@H](NS(=O)(=O)Cc1ccc(C(=O)O)cc1)C(=O)N[C@@H](Cc1cccc(CN)c1)C(=O)NCc1ccc(C(=N)N)cc1` [compound 65], the inhibition constant Ki is less than 1 µM in test [1]; more than 1 µM in test [2]; less than 0.1 µM in test [3] (setting [5]); less than 0.01 µM in test [4] (setting [6]); less than 0.001 µM in test [4] (setting [8]).

As to `N=C(N)c1ccc(CNC(=O)[C@H](Cc2ccc(CN)cc2)NC(=O)[C@@H](CCCc2ccccc2)NS(=O)(=O)Cc2ccc(C(=O)O)cc2)cc1` [compound 29], the Ki was less than 1 µM in test [1]; less than 1 µM in test [2]; less than 0.01 µM in test [3] (setting [5]); less than 0.01 µM in test [4] (setting [6]); less than 0.001 µM in test [4] (setting [8]).

`N=C(N)c1ccc(CNC(=O)[C@H](CCc2ccccc2)NC(=O)[C@@H](CCCc2ccc[n+]([O-])c2)NS(=O)(=O)Cc2cccc(C(=O)O)c2)cc1` [compound 56]: the Ki in test [1] was less than 0.01 µM; in test [2], less than 1 µM; in test [3] (setting [5]), less than 0.01 µM; in test [4] (setting [6]), less than 0.01 µM.

For `N=C(N)c1ccc(CNC(=O)[C@H](CCc2ccccc2)NC(=O)[C@@H](CCCc2ccncc2)NS(=O)(=O)Cc2cccc(C(=O)O)c2)cc1` [compound 50], the Ki is less than 0.1 µM in test [1], less than 1 µM in test [2], less than 0.01 µM in test [3] (setting [5]) and less than 0.01 µM in test [4] (setting [6]).

Consider `N=C(N)c1ccc(CNC(=O)[C@H](CCc2ccncc2)NC(=O)[C@@H](CCCc2ccccc2)NS(=O)(=O)Cc2ccccc2)cc1` [compound 39], for which the Ki in test [1] was less than 0.1 µM; in test [2], less than 0.01 µM; in test [3] (setting [5]), less than 0.01 µM; in test [3] (setting [7]) it was less than 0.005 µM; in test [4] (setting [6]), less than 0.01 µM; in test [4] (setting [8]), less than 0.001 µM.

Turning to `N=C(N)c1ccc(CNC(=O)[C@H](Cc2c[nH]cn2)NC(=O)[C@@H](CCCc2ccccc2)NS(=O)(=O)Cc2cccc(C(=O)O)c2)cc1` [compound 33], the Ki in test [1] was less than 1 µM; in test [2] it was more than 1 µM; in test [3] (setting [5]), less than 0.01 µM; in test [4] (setting [6]), less than 0.1 µM.

In the case of `N=C(N)c1ccc(CNC(=O)[C@H](Cc2cccc(CN)c2)NC(=O)[C@@H](CCCc2ccc(C(F)(F)F)cc2)NS(=O)(=O)Cc2ccccc2)cc1` [compound 11], the Ki in test [1] is less than 0.01 µM; in test [2], less than 1 µM; in test [3] (setting [5]), less than 0.01 µM; in test [4] (setting [6]), less than 0.01 µM.

`CC(C)(C)OC[C@@H](NS(=O)(=O)Cc1ccccc1)C(=O)N[C@@H](Cc1cccc(CN)c1)C(=O)NCc1ccc(C(=N)N)cc1` [compound 71] registered a Ki in test [1] of more than 1 µM.

As to `N=C(N)c1ccc(CNC(=O)[C@H](Cc2cccc(CN)c2)NC(=O)[C@@H](CO)NS(=O)(=O)Cc2ccccc2)cc1` [compound 72], the Ki in test [4] (setting [6]) was less than 0.1 µM.
